We go through five molecules from patent US20070135436A1, “Chemical compounds” (Clavis Pharma AS, priority 2005, published 2007).

One assay relates to several cell lines. The conditions noted are these: prior art references; cited from earlier work.
Assay [1] relates to breast cancer cell line MaTu. Briefly: MTT growth inhibition in breast cancer cell line MaTu. It counts as cell-based, human. The conditions noted are these: MaTu cells; for IC50: 4 days incubation, MTT, read-out: IC50 μM ± Standard Deviation. As to the method: The breast cancer cell line MaTu was seeded, 5×10^3 cells per well, in 96-well-plates. The medium was RMPI 1640 with 2 mM Glutamine and 10% Foetal Bovine Serum. 24 hours later the test compounds were added in 6 concentrations. The cells were incubated for 4 days. The MTT solution was added to each well and incubated for 4 hours. The samples were read by an ELISA reader at 540 nm. The IC50 values were determined from growth curves. The test compounds were troxacitabine elaidic amid, troxacitabine petroselaidoate, troxacitabine-petroselaidic amide and troxacitabine γ-linolenoate.

Where two headings read alike, the source gives them in different places.

The term IC50 denotes the concentration that inhibits the measured activity by half.

Take `CCCCCCCCC=CCCCCCCCC(=O)Nc1ccn(C2COC(CO)O2)c(=O)n1` (stereo not drawn) [oleic acid amid derivative]: the “times better activity than the elaidic acid amide counterpart” value in the assay on several cell lines is on record as 2 to 5 times.
In the case of `CCCCCCCC/C=C/CCCCCCCC(=O)Nc1ccn([C@@H]2CO[C@H](CO)O2)c(=O)n1` [troxacitabine elaidic-amide, Troxacitabine N^4-elaidic Acid Amide, reference compound], in assay [1], the IC50 is 3.58 ± 2.56 µM.
In the case of `CCCCCCCCCCC/C=C/CCCCC(=O)OC[C@H]1OC[C@@H](n2ccc(N)nc2=O)O1` [troxacitabine petroselaidoate, Troxacitabine-2′-hydroxymethyl-petroselaidoate], the IC50 in assay [1] (Homo sapiens, 96 h) turned out to be 0.18 ± 0.12 µM. Moreover, in assay [1] (relative to troxacitabine elaidic amide), the “fold more active than troxacitabine elaidic amide” value is recorded as 20 fold.
Regarding `CCCCC/C=C\C/C=C\C/C=C\CCCCC(=O)OC[C@H]1OC[C@@H](n2ccc(N)nc2=O)O1` [troxacitabine γ-linolenoate, Troxacitabine 2′-hydroxymethyl-6,9,12-linolenoate], the half-inhibitory concentration (IC50) in assay [1] (Homo sapiens, 96 h) amounted to 0.83 ± 0.59 µM.
Turning to `CCCCCCCCCCC/C=C/CCCCC(=O)Nc1ccn([C@@H]2CO[C@H](CO)O2)c(=O)n1` [troxacitabine-petroselaidic amide, Troxacitabine N^4-petroselaidic Acid Amide], the half-maximal inhibitory concentration (IC50) in assay [1] (Homo sapiens, 96 h) was 0.15 ± 0.07 µM.
